Patent EP0018155A2, “Novel cephalosporin compounds, a process for the preparation thereof, pharmaceutical compositions containing the same and the use thereof as a therapeutic agent against a microorganism” (NOVO NORDISK A/S, priority 1979, dated 1980)
In brackets after ≈: the same amount, converted by molar mass. Read-outs that look alike come from different tables or passages of the source. One block for each compound: values may come before it.

Key:
Assay in all cases: agar serial dilution test (MIC)
Assay type in all cases: cell-based
[1] = tested on: K. edwardsii K1
Procedure: (§1) The antibiotic activity in vitro of some compounds according to the invention and of some previously known compounds was tested by means of an agar serial dilution test. The following compounds were tested: 7β-[2-(2-Aminothiazol-4-yl)-2-diethylphosphoryloxyiminoacetamido] cephalosporanic acid (designated ES 643, 7β-[2-(2-amino- thiazol-4-yl)-2-dimethylphosphoryloxyiminoacetamido] cephalosporanic acid (designated ES 671), 7β-[2-(2-amino- thiazol-4-yl)-2-dimorpholinophosphoryloxyiminoacetamido] cephalosporanic acid (designated ES 656), 7β-[2-(2-amino- thiazol-4-yl)-2-methylmethylphosphonyloxyiminoacetamido] cephalosporanic acid (designated ES 682), 7β-[2-(2-amino- thiazol-4-yl)-2-hydroxyiminoacetamido] cephalosporanic acid (designated A), cefuroxime (designated B), and cephalotin (designated C). MIC designates minimum inhibitory concentration.

[2] = tested on: S. pyogenes 12334
Procedure: as §1

[3] = tested on: S. albus 12228
Procedure: as §1

[4] = tested on: P. vulgaris 5209
Procedure: as §1

[5] = tested on: S. aureus 3356
Procedure: as §1

[6] = tested on: E. coli 01
Procedure: as §1

[7] = tested on: E. coli 04
Procedure: as §1

[8] = tested on: S. aureus 13709
Procedure: as §1

[9] = tested on: S. albus 3348
Procedure: as §1

[10] = tested on: K. pneumoniae K8; conditions: Klebsiella pneumoniae
Procedure: as §1

[11] = tested on: P. mirabilis 2311
Procedure: as §1

[12] = tested on: P. mirabilis 682
Procedure: as §1

[13] = tested on: S. albus 3578
Procedure: as §1

[14] = tested on: P. mirabilis 2255
Procedure: as §1

[15] = tested on: P. vulgaris 17028
Procedure: as §1

[16] = tested on: P. vulgaris 16868
Procedure: as §1

[17] = tested on: S. pyogenes 12384
Procedure: as §1

[18] = tested on: P. morganii 69
Procedure: as §1

[19] = tested on: P. morganii 18
Procedure: as §1

[20] = tested on: S. aureus 3349
Procedure: as §1

[21] = tested on: S. aureus 209P; conditions: Staphylococcus aureus
Procedure: as §1

[22] = K. edwardsii K1, read-out: MIC value
[23] = Streptococcus pyogenes, S. pyogenes 12334, read-out: MIC value
[24] = Staphylococcus albus, S. albus 12228, read-out: MIC value
[25] = Proteus vulgaris, P. vulgaris 5209, read-out: MIC value
[26] = Staphylococcus aureus, S. aureus 3356*, penicillin-resistant strain, read-out: MIC value
[27] = Escherichia coli, E. coli 01, read-out: MIC value
[28] = Escherichia coli, E. coli 04, read-out: MIC value
[29] = Staphylococcus aureus, S. aureus 13709, read-out: MIC value
[30] = Staphylococcus albus, S. albus 3348, read-out: MIC value
[31] = K. pneumoniae K8, read-out: MIC value
[32] = Proteus mirabilis, P. mirabilis 2311, read-out: MIC value
[33] = Proteus mirabilis, P. mirabilis 682, read-out: MIC value
[34] = Staphylococcus albus, S. albus 3578, read-out: MIC value
[35] = Proteus mirabilis, P. mirabilis 2255, read-out: MIC value
[36] = Proteus vulgaris, P. vulgaris 17028, read-out: MIC value
[37] = Proteus vulgaris, P. vulgaris 16868, read-out: MIC value
[38] = Streptococcus pyogenes, S. pyogenes 12384, read-out: MIC value
[39] = Morganella morganii, P. morganii 69, read-out: MIC value
[40] = Morganella morganii, P. morganii 18, read-out: MIC value
[41] = Staphylococcus aureus, S. aureus 3349*, penicillin-resistant strain, read-out: MIC value
[42] = S. aureus 209P, read-out: MIC value

MIC [1, 22]: 0.2 µg/mL (≈ 0.453 µM) | MIC [2, 23]: < 0.1 µg/mL | MIC [3, 24]: 0.8 µg/mL (≈ 1.81 µM) | MIC [4, 25]: 6.2 µg/mL (≈ 14 µM) | MIC [5, 26]: 0.8 µg/mL (≈ 1.81 µM) | MIC [6, 27]: < 0.1 µg/mL | MIC [7, 28]: 0.2 µg/mL (≈ 0.453 µM) | MIC [8, 29]: 1.6 µg/mL (≈ 3.62 µM) | MIC [9, 30]: 0.8 µg/mL (≈ 1.81 µM) | MIC [10, 31]: 0.4 µg/mL (≈ 0.906 µM) | MIC [11, 32]: < 0.1 µg/mL | MIC [12, 33]: < 0.1 µg/mL | MIC [13, 34]: 0.8 µg/mL (≈ 1.81 µM) | MIC [14, 35]: < 0.1 µg/mL | MIC [15, 36]: 0.8 µg/mL (≈ 1.81 µM) | MIC [16, 37]: 1.6 µg/mL (≈ 3.62 µM) | MIC [17, 38]: < 0.1 µg/mL | MIC [18, 39]: 0.2 µg/mL (≈ 0.453 µM) | MIC [19, 40]: 0.2 µg/mL (≈ 0.453 µM) | MIC [20, 41]: 1.6 µg/mL (≈ 3.62 µM) | MIC [21, 42]: 1.6 µg/mL (≈ 3.62 µM)
Structure (SMILES): CC(=O)OCC1=C(C(=O)O)N2C(=O)C(NC(=O)C(=NO)c3csc(N)n3)C2SC1 (stereo not drawn) [A, 7β-[2-(2-amino-thiazol-4-yl)-2-hydroxyiminoacetamido] cephalosporanic acid, reference compound]

MIC [1, 22]: 6.2 µg/mL (≈ 14.6 µM) | MIC [2, 23]: < 0.1 µg/mL | MIC [3, 24]: 0.4 µg/mL (≈ 0.943 µM) | MIC [4, 25]: > 100 µg/mL | MIC [5, 26]: 0.8 µg/mL (≈ 1.89 µM) | MIC [6, 27]: 3.1 µg/mL (≈ 7.3 µM) | MIC [7, 28]: 6.2 µg/mL (≈ 14.6 µM) | MIC [8, 29]: 0.8 µg/mL (≈ 1.89 µM) | MIC [9, 30]: 0.2 µg/mL (≈ 0.471 µM) | MIC [10, 31]: 12.5 µg/mL (≈ 29.5 µM) | MIC [11, 32]: 0.8 µg/mL (≈ 1.89 µM) | MIC [12, 33]: 3.1 µg/mL (≈ 7.3 µM) | MIC [13, 34]: 0.2 µg/mL (≈ 0.471 µM) | MIC [14, 35]: 1.6 µg/mL (≈ 3.77 µM) | MIC [15, 36]: > 100 µg/mL | MIC [16, 37]: > 100 µg/mL | MIC [17, 38]: < 0.1 µg/mL | MIC [18, 39]: 25 µg/mL (≈ 58.9 µM) | MIC [19, 40]: 25 µg/mL (≈ 58.9 µM) | MIC [20, 41]: 0.8 µg/mL (≈ 1.89 µM) | MIC [21, 42]: 1.6 µg/mL (≈ 3.77 µM)
Structure (SMILES): CO/N=C(\C(=O)N[C@@H]1C(=O)N2C(C(=O)O)=C(COC(N)=O)CS[C@H]12)c1ccco1 [B, cefuroxime, reference compound]

Structure (SMILES): CC(=O)OCC1=C(C(=O)O)N2C(=O)[C@@H](NC(=O)Cc3cccs3)[C@H]2SC1 [C, cephalotin, reference compound]
MIC ([1]; read-out: MIC value in μg/ml): 0.2 µg/mL (≈ 0.504 µM) | MIC ([2]; Streptococcus pyogenes, 12334, read-out: MIC value in μg/ml): < 0.1 µg/mL | MIC ([3]; Staphylococcus albus, 12228, read-out: MIC value in μg/ml): 0.2 µg/mL (≈ 0.504 µM) | MIC ([4]; Proteus vulgaris, 5209, read-out: MIC value in μg/ml): > 100 µg/mL | MIC ([5]; Staphylococcus aureus, 3356, read-out: MIC value in μg/ml): < 0.1 µg/mL | MIC ([6]; Escherichia coli, 01, read-out: MIC value in μg/ml): 6.2 µg/mL (≈ 15.6 µM) | MIC ([7]; Escherichia coli, 04, read-out: MIC value in μg/ml): 12.5 µg/mL (≈ 31.5 µM) | MIC ([8]; Staphylococcus aureus, 13709, read-out: MIC value in μg/ml): 0.4 µg/mL (≈ 1.01 µM) | MIC ([9]; Staphylococcus albus, 3348, read-out: MIC value in μg/ml): < 0.1 µg/mL | MIC ([10]; K8, read-out: MIC value in μg/ml): 50 µg/mL (≈ 126 µM) | MIC ([11]; Proteus mirabilis, 2311, read-out: MIC value in μg/ml): 12.5 µg/mL (≈ 31.5 µM) | MIC ([12]; Proteus mirabilis, 682, read-out: MIC value in μg/ml): 6.2 µg/mL (≈ 15.6 µM) | MIC ([13]; Staphylococcus albus, 3578, read-out: MIC value in μg/ml): < 0.1 µg/mL | MIC ([14]; Proteus mirabilis, 2255, read-out: MIC value in μg/ml): 3.1 µg/mL (≈ 7.82 µM) | MIC ([15]; Proteus vulgaris, 17028, read-out: MIC value in μg/ml): > 100 µg/mL | MIC ([16]; Proteus vulgaris, 16868, read-out: MIC value in μg/ml): > 100 µg/mL | MIC ([17]; Streptococcus pyogenes, 12384, read-out: MIC value in μg/ml): < 0.1 µg/mL | MIC ([18]; Morganella morganii, 69, read-out: MIC value in μg/ml): > 100 µg/mL | MIC ([19]; Morganella morganii, 18, read-out: MIC value in μg/ml): > 100 µg/mL | MIC ([20]; Staphylococcus aureus, 3349, read-out: MIC value in μg/ml): 0.4 µg/mL (≈ 1.01 µM) | MIC ([21]; 209P, read-out: MIC value in μg/ml): < 0.1 µg/mL
